From patent US12545673B2, “Imidazopyridine derivative and pharmaceutical composition comprising same as active ingredient” (TSD LIFE SCIENCES CO., LTD., priority 2019, dated 2026)
Where two headings read alike, the source gives them in different places.

Tests used:
MLK3 = MLK3 (Homo sapiens (Human), UniProt Q16584); experiment: Evaluation of inhibitory activity of enzyme units, MLK3 ([γ-33P]-ATP filter assay)
[1] = tested on: human breast cancer cell line MDA-MB-231; experiment: Cancer cell proliferation inhibitory activity evaluation 1 (CCK-8), MDA-MB-231; format: cell-based
Description: (§1) In order to identify whether the compound has anticancer activity, the human breast cancer cell line MDA-MB-231, the colorectal cancer cell line HT-29, the acute myeloid leukemia cell line U937, and the chronic myeloid leukemia cell line K562 were used. The cell line was cultured using RPMI-1640 medium containing 10% fetal bovine serum. Welgene products were used as the medium, and hyclone products were used for fetal bovine serum, and 1% of antibiotics for cell culture from Gibco were used as the culture medium.

[2] = tested on: acute lymphoblastic leukemia cell line Jurkat; experiment: Cancer cell proliferation inhibitory activity evaluation 2 (CCK-8), Jurkat; format: cell-based; settings: Homo sapiens
[3] = tested on: chronic myeloid leukemia cell line K562; experiment: Cancer cell proliferation inhibitory activity evaluation 1 (CCK-8), K562; format: cell-based; settings: Homo sapiens, read-out: Cancer cell proliferation inhibitory activity K562
Description: as §1

[4] = tested on: gastric cancer cell line AGS; experiment: Cancer cell proliferation inhibitory activity evaluation 2 (CCK-8), AGS; format: cell-based; settings: Homo sapiens, read-out: Cancer cell proliferation inhibitory activity AGS
[5] = tested on: acute myeloid leukemia cell line U937; experiment: Cancer cell proliferation inhibitory activity evaluation 2 (CCK-8), U937; format: cell-based; settings: Homo sapiens, read-out: Cancer cell proliferation inhibitory activity U937
[6] = tested on: colorectal cancer cell line HT-29; experiment: Cancer cell proliferation inhibitory activity evaluation 1 (CCK-8), HT-29; format: cell-based; settings: Homo sapiens, read-out: Cancer cell proliferation inhibitory activity HT29
Description: as §1

[7] = tested on: acute myeloid leukemia cell line U937; experiment: Cancer cell proliferation inhibitory activity evaluation 1 (CCK-8), U937; format: cell-based; settings: Homo sapiens, read-out: Cancer cell proliferation inhibitory activity U937
Description: as §1

LRRK2 mutant (G2019S) = LRRK2 mutant (G2019S) (Homo sapiens (Human), UniProt Q5S007, G2019S); experiment: Evaluation of inhibitory activity against LRRK2 (affinity bead competition binding), G2019S mutant; settings: read-out: Residual active values (%) LRRK2(G2019S); for remaining binding at 0.1 µM: 100 nM; for remaining binding at 0.5 µM: 500 nM
Chain of LRRK2 mutant (G2019S) (Q5S007 whole entry G2019S, looked up): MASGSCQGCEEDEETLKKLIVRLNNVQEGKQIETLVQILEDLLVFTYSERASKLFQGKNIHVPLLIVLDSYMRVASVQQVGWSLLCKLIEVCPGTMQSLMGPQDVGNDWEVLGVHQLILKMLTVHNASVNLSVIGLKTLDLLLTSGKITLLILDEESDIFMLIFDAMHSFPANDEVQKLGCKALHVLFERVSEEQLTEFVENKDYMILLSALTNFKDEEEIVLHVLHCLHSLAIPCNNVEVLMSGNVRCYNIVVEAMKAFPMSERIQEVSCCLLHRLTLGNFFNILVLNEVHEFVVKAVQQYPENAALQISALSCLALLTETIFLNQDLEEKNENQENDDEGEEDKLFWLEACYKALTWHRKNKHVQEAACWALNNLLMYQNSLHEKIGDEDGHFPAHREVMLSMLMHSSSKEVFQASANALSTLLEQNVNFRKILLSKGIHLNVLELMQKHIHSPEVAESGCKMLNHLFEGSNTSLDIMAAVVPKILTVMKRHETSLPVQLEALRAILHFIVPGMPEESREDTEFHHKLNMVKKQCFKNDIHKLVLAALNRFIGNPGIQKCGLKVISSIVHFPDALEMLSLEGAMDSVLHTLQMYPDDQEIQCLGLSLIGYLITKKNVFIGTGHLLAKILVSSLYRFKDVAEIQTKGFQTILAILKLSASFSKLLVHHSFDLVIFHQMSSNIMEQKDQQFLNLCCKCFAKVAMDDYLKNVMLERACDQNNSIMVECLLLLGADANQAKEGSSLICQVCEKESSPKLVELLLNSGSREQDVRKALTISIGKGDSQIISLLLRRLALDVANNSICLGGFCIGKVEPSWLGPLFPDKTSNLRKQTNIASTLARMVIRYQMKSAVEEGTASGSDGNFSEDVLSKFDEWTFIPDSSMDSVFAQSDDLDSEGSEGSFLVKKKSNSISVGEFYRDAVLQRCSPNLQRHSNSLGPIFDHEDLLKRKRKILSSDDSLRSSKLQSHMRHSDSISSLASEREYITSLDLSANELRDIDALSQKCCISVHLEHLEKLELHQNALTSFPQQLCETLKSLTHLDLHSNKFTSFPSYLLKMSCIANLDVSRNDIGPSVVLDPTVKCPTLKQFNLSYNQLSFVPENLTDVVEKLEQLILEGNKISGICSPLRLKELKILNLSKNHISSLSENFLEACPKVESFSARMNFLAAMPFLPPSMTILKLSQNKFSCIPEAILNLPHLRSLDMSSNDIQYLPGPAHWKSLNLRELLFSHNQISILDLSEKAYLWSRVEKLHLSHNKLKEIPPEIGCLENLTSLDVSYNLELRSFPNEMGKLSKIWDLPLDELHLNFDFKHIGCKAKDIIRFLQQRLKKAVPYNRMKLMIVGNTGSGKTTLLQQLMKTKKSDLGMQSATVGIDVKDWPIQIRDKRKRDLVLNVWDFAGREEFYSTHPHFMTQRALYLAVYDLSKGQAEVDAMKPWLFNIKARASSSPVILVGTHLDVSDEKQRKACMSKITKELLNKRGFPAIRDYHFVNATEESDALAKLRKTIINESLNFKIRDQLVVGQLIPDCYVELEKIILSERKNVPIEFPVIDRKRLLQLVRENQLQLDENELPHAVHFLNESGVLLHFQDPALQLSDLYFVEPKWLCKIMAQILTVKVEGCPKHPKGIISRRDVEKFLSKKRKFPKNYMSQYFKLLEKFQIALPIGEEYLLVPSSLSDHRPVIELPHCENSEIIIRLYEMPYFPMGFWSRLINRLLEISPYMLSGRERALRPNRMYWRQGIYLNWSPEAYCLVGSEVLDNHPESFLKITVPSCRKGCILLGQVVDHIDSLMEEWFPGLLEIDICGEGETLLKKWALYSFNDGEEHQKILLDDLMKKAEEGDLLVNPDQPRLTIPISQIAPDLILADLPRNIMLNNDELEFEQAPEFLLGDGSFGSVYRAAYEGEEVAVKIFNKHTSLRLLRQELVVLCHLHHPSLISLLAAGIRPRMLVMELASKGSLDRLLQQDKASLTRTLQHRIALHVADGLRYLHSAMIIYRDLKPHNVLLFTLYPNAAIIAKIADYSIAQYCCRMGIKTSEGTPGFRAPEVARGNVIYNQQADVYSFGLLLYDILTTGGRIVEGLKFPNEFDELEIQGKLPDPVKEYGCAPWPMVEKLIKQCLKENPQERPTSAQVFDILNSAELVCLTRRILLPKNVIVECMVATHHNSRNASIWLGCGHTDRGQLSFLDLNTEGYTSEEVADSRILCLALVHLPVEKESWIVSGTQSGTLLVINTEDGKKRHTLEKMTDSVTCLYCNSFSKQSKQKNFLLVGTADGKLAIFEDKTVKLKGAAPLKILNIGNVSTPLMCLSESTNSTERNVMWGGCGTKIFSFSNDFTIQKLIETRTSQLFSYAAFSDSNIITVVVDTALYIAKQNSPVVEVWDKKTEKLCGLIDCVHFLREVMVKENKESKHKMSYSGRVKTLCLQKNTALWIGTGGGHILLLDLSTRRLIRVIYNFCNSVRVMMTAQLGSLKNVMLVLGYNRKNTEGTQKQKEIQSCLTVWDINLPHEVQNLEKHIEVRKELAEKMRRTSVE
Description: (§2) In order to identify the activity inhibitory effect on the LRRK2 wild-type and LRRK2 mutant (G2019S) kinase of the example compound according to the present disclosure, BL21-derived E. coli bacteria (E. coli) were cultured in a 24-well plate until the growth phase (log phase). After culturing, T7 phage tagged with LRRK2 wild-type or LRRK2 mutant (G2019S) was used to infect the multiplicity of infection (MOI) at 0.4. Thereafter, the E. coli bacteria were stirred at 32° C. for 90 to 150 minutes to allow dissolution. The lysate of E. coli bacteria was centrifuged (6,000×g) and filtered (0.2 μm), and the obtained tagged T7 phage […] a DNA-tagged kinase protein (LRRK2 or LRRK2 G2019S) was obtained.
(§3) After blocking the biotinylated ligand with extra biotin, it is washed with Pierce's buffer, SeaBlock (1% BSA, 0.05% Tween 20, 1 mM DTT) to remove unbound ligand and reduce non-specific binding.
(§4) The compound was prepared at a concentration of 40× in 100% DMSO and used after dilution, and all binding reactions were performed in a final volume of 0.02 ml in a 384-well plate.
(§5) The activity inhibitory effect on the LRRK2 wild-type and LRRK2 mutant (G2019S) kinases of the example compounds according to the present disclosure was measured and shown in Table 10 below.

LRRK2 wild-type = LRRK2 wild-type (Homo sapiens (Human), UniProt Q5S007); experiment: Evaluation of inhibitory activity against LRRK2 (affinity bead competition binding), wild-type; settings: read-out: Residual active values (%) LRRK2; for remaining binding at 0.1 µM: 100 nM; for remaining binding at 0.5 µM: 500 nM
Chain of LRRK2 wild-type (Q5S007 whole entry, looked up): as the sequence (Q5S007 whole entry G2019S, looked up) above, with S2019G counted along it
Description: as §2, §3, §4, §5

[8] = tested on: human lung cancer cell line A549; experiment: Cancer cell proliferation inhibitory activity evaluation 2 (CCK-8), A549; format: cell-based
Description: (§6) In order to identify whether the compounds have anticancer activity, the acute myeloid leukemia cell line U937, the acute lymphoblastic leukemia cell line Jurkat, the gastric cancer cell lines AGS, […], and the human lung cancer cell line A549 were used. The cell line was cultured using RPMI-1640 medium (U937, Jurkat, AGS, A549) or DMEM (Hs746T) medium containing 10% fetal bovine serum. Welgene products were used as the medium, and hyclone products were used for fetal bovine serum, and 1% of antibiotics for cell culture from Gibco were used as the culture medium.

MLK1 = MLK1 (Homo sapiens (Human), UniProt P80192); experiment: Evaluation of inhibitory activity of enzyme units, MLK1 ([γ-33P]-ATP filter assay); format: biochemical
Chain of MLK1 (P80192 whole entry, looked up): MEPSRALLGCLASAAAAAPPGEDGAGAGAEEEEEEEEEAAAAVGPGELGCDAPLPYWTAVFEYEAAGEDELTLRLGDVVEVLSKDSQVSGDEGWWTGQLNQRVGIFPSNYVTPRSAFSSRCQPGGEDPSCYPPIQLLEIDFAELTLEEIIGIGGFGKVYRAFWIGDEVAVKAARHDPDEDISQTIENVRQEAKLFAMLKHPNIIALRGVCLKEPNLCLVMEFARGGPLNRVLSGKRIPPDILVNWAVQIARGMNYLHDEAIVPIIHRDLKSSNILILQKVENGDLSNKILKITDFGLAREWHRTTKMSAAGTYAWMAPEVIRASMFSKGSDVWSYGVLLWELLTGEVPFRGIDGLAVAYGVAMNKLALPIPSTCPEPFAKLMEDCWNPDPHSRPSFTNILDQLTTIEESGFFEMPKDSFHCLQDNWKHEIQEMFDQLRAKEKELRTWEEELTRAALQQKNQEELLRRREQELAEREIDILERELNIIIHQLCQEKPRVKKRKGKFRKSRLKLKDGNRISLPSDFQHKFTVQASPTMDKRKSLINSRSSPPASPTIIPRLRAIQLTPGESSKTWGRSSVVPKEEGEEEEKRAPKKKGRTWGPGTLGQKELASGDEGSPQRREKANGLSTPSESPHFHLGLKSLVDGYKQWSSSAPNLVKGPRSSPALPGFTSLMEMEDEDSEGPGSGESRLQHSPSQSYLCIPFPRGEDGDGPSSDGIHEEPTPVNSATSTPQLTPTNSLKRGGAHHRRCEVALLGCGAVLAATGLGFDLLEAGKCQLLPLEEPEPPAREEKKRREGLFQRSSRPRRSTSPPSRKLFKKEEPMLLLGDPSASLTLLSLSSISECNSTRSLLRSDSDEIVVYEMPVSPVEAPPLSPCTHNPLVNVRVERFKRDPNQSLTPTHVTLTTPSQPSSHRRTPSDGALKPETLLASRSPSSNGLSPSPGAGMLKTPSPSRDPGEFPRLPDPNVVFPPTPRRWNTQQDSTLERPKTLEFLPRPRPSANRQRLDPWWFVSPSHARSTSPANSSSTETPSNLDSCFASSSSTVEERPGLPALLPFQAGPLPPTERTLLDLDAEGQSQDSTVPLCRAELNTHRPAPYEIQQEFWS

[9] = tested on: gastric cancer cell line Hs746T; experiment: Cancer cell proliferation inhibitory activity evaluation 2 (CCK-8), Hs746T; format: cell-based; settings: Homo sapiens
Description: as §6

[10] = MDA-MB-231, 10 μM, 72 hours, CCK-8, read-out: Cancer cell proliferation inhibitory activity MDAMB231
[11] = 10 μM, 72 hours, CCK-8, read-out: Cancer cell proliferation inhibitory activity Jurkat
[12] = U-937, 10 μM, 72 hours, CCK-8 (Table 3)
[13] = U-937, 10 μM, 72 hours, CCK-8 (Table 2)
[14] = MDA-MB-231, 72 h, read-out: Cancer cell proliferation inhibitory activity MDAMB231
[15] = 72 h, read-out: Cancer cell proliferation inhibitory activity Jurkat
[16] = A549, 10 μM, 72 hours, CCK-8, read-out: Cancer cell proliferation inhibitory activity A549
[17] = 10 μM, 72 hours, CCK-8, read-out: Cancer cell proliferation inhibitory activity Hs746T

Chain of MLK3 (Q16584 whole entry, looked up): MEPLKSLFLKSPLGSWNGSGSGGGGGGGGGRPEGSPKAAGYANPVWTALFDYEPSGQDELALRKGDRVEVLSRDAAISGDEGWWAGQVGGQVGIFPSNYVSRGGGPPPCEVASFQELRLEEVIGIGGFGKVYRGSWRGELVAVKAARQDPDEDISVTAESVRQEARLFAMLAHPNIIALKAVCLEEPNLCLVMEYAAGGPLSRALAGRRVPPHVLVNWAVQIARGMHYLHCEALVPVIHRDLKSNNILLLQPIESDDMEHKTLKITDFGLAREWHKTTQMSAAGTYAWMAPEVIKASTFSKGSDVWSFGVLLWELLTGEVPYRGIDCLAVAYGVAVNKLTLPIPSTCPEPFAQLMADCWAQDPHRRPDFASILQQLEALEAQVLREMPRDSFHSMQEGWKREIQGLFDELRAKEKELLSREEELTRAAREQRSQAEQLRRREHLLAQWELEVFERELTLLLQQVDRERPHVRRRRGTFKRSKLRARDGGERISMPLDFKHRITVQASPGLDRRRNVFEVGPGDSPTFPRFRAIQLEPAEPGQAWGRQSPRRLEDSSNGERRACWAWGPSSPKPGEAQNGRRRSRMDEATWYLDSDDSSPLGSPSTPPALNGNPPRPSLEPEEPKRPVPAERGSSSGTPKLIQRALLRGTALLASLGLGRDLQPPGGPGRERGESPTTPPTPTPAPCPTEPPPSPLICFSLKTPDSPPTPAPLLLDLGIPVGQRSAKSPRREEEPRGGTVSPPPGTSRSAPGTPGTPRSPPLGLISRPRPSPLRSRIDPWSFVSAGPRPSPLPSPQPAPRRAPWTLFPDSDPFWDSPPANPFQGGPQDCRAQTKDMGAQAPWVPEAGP

| Compound | IC50 (MLK3) [nM] | inhibition at 10 µM [1, 10] [%] | inhibition at 10 µM [2, 11] [%] | inhibition at 10 µM ([3]; K562, 10 μM, 72 hours, CCK-8) [%] | inhibition at 10 µM ([4]; 10 μM, 72 hours, CCK-8) [%] | inhibition at 10 µM [5, 12] [%] | inhibition at 10 µM ([6]; HT-29, 10 μM, 72 hours, CCK-8) [%] | inhibition at 10 µM [7, 13] [%] | IC50 (MLK3; read-out: IC50(nM) MLK3) [nM] | inhibition at 10 µM [2, 15] [%] | inhibition at 10 µM ([4]; 72 h) [%] | inhibition at 10 µM ([5]; U-937, 72 h) [%] | remaining binding at 0.1 µM (LRRK2 mutant (G2019S)) [%] | remaining binding at 0.5 µM (LRRK2 mutant (G2019S)) [%] | remaining binding at 0.1 µM (LRRK2 wild-type) [%] | remaining binding at 0.5 µM (LRRK2 wild-type) [%] | further results |
| --- | --- | --- | --- | --- | --- | --- | --- | --- | --- | --- | --- | --- | --- | --- | --- | --- | --- |
| CCS(=O)(=O)N1CC[C@H](Nc2c(Br)cnc3[nH]c(-c4cc(C)n(-c5ccc(N6CCOCC6)cc5)c4C)nc23)C1 [Example 1, (S)-6-bromo-2-(2,5-dimethyl-1-(4-morpholinophenyl)-1H-pyrrol-3-yl)-N-(1-(ethylsulfonyl)pyrrolidine-3-yl)-3H-imidazo[4,5-b]pyridine-7-amine] | 4 | 10 to 50 | 10 to 50 | < 10 | 10 to 50 | 10 to 50 | 10 to 50 | 10 to 50 |  |  |  |  |  |  |  |  |  |
| CCS(=O)(=O)N1CC[C@H](Nc2c(Br)cnc3[nH]c(-c4cc(C)n(-c5c(Cl)cccc5Cl)c4C)nc23)C1 [Example 13, (S)-6-bromo-2-(1-(2,6-dichlorophenyl)-2,5-dimethyl-1H-pyrrol-3-yl)-N-(1-(ethylsulfonyl)pyrrolidine-3-yl)-3H-imidazo[4,5-b]pyridine-7-amine] |  |  |  |  |  |  |  |  | 7 | > 50 | > 50 | 10 to 50 |  |  |  |  | inhibition at 10 µM [1, 14]: 10 to 50%; inhibition at 10 µM ([3]; K562, 72 h): 10 to 50%; inhibition at 10 µM ([6]; HT-29, 72 h): 10 to 50%; inhibition at 10 µM ([7]; U-937, 72 h): > 50% |
| CCS(=O)(=O)N1CC[C@H](Nc2c(Br)cnc3[nH]c(-c4cc(C)n(-c5cc(Cl)ccc5Cl)c4C)nc23)C1 [Example 14, 6-bromo-2-(1-(2,5-dichlorophenyl)-2,5-dimethyl-1H-pyrrol-3-yl)-N—((S)-1-(ethylsulfonyl)pyrrolidine-3-yl)-3H-imidazo[4,5-b]pyridine-7-amine] | 17 | < 10 | 10 to 50 | < 10 | 10 to 50 | 10 to 50 | 10 to 50 | 10 to 50 |  |  |  |  |  |  |  |  |  |
| CCS(=O)(=O)N1CC[C@H](Nc2c(Br)cnc3[nH]c(-c4cc(C)n(-c5ccc(Cl)c(Cl)c5)c4C)nc23)C1 [Example 15, (S)-6-bromo-2-(1-(3,4-dichlorophenyl)-2,5-dimethyl-1H-pyrrol-3-yl)-N-(1-(ethylsulfonyl)pyrrolidine-3-yl)-3H-imidazo[4,5-b]pyridine-7-amine] |  |  |  |  |  |  |  |  | 34 | < 10 | 10 to 50 | 10 to 50 |  |  |  |  | inhibition at 10 µM [1, 14]: > 50%; inhibition at 10 µM ([3]; K562, 72 h): 10 to 50%; inhibition at 10 µM ([6]; HT-29, 72 h): < 10%; inhibition at 10 µM ([7]; U-937, 72 h): 10 to 50% |
| CCS(=O)(=O)N1CC[C@H](Nc2c(Br)cnc3[nH]c(-c4cc(C)n(-c5ccccc5Cl)c4C)nc23)C1 [Example 16, 6-bromo-2-(1-(2-chlorophenyl)-2,5-dimethyl-1H-pyrrol-3-yl)-N—((S)-1-(ethylsulfonyl)pyrrolidine-3-yl)-3H-imidazo[4,5-b]pyridine-7-amine] | 11 | 10 to 50 | 10 to 50 | > 50 | 10 to 50 | < 10 | 10 to 50 | > 50 |  |  |  |  |  |  |  |  |  |
| Cc1cc(-c2nc3c(Nc4cccc(S(N)(=O)=O)c4)c(Br)cnc3[nH]2)c(C)n1-c1c(Cl)cccc1Cl [Example 26, 3-((6-bromo-2-(1-(2,6-dichlorophenyl)-2,5-dimethyl-1H-pyrrol-3-yl)-3H-imidazo[4,5-b]pyridine-7-yl)amino)benzenesulfonamide] |  | 10 to 50 | 10 to 50 | < 10 | 10 to 50 | 10 to 50 | 10 to 50 | 10 to 50 | 19 |  |  |  |  |  |  |  |  |
| CCS(=O)(=O)N1CC[C@H](Nc2c(Cl)cnc3nc(-c4cc(C)n(-c5cccc(C(=O)N6CCOCC6)c5)c4C)[nH]c23)C1 [Example 54, (S)-(3-(3-(6-chloro-7-((1-(ethylsulfonyl)pyrrolidine-3-yl)amino)-1H-imidazo[4,5-b]pyridine-2-yl)-2,5-dimethyl-1H-pyrrol-1-yl)phenyl) (morpholino) methanone] |  |  |  |  |  |  |  |  |  |  |  |  | 6.3 | 0.4 | 24 | 4.1 |  |
| CCS(=O)(=O)N1CC[C@H](Nc2c(Br)cnc3nc(-c4cc(C)n(-c5cc(C(=O)N6CCOCC6)ccc5C)c4C)[nH]c23)C1 [Example 91, (3-(3-(6-bromo-7-(((S)-1-(ethylsulfonyl)pyrrolidine-3-yl)amino)-1H-imidazo[4,5-b]pyridine-2-yl)-2,5-dimethyl-1H-pyrrol-1-yl)-4-methylphenyl) (morpholino) methanone] |  |  |  |  |  |  |  |  | 25 | > 50 | > 50 | > 50 |  |  |  |  | inhibition at 10 µM ([8]; A549, 72 h, read-out: Cancer cell proliferation inhibitory activity A549): > 50%; IC50 (MLK1): 19 nM; inhibition at 10 µM ([9]; 72 h, read-out: Cancer cell proliferation inhibitory activity Hs746T): > 50% |
| Cc1ccc(C(=O)N2CCOCC2)cc1-n1c(C)cc(-c2nc3ncc(Br)c(Nc4cccc(S(N)(=O)=O)c4)c3[nH]2)c1C [Example 94, 3-((6-bromo-2-(2,5-dimethyl-1-(2-methyl-5-(morpholine-4-carbonyl)phenyl)-1H-pyrrol-3-yl)-1H-imidazo[4,5-b]pyridine-7-yl)amino)benzenesulfonamide] |  |  | 10 to 50 |  | 10 to 50 | 10 to 50 |  |  | 73 |  |  |  | 59 | 16 | 70 | 40 | inhibition at 10 µM [8, 16]: < 10%; IC50 (MLK1): 52 nM; inhibition at 10 µM [9, 17]: > 50% |
| CCS(=O)(=O)N1CC[C@H](Nc2c(Br)cnc3[nH]c(-c4cc(C)n(-c5ccc(C(=O)N6CCOCC6)cc5C)c4C)nc23)C1 [Example 98, (4-(3-(6-bromo-7-(((S)-1-(ethylsulfonyl)pyrrolidine-3-yl)amino)-3H-imidazo[4,5-b]pyridine-2-yl)-2,5-dimethyl-1H-pyrrol-1-yl)-3-methylphenyl) (morpholino) methanone] |  |  | > 50 |  | > 50 | > 50 |  |  |  |  |  |  | 8.2 | 1 | 18 | 3.5 | inhibition at 10 µM [8, 16]: 10 to 50%; inhibition at 10 µM [9, 17]: > 50% |
